Data: patent publication US20240051968A1, “METHODS FOR TREATING SPINOCEREBELLAR ATAXIA TYPE 3” (PTC Therapeutics, Inc., priority 2021, published 2024)

Tests used:
[1] = system: Total ATXN3 (tATXN3) protein; assay: Endogenous Total ATXN3 (tATXN3) Protein Assay (MSD immunoassay of cell lysates); format: cell-based; conditions: cells incubated with compound 48 h; 7-point concentration curve; MSD detection in cell lysate
In short: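 Cells were plated at 10,000 per well on a 7-point, 3.16-fold compound dilution series in duplicate, with DMSO controls, and incubated 48 h at 37 °C. Lysates were run in an MSD sandwich immunoassay: mouse anti-ATXN3 capture, rabbit anti-ATXN3 secondary and SULFO-TAG anti-rabbit detection, read by electrochemiluminescence.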

ATXN3 pre-mRNA = assay: RT-qPCR Assay to Quantify Exon 4 Skipping in ATXN3 pre-mRNA in Cells; format: cell-based; conditions: cells incubated with compound 24 h, 7-point concentration curve, GAPDH control
In short: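 Cells (10,000/well) treated 24 h at 37° C with 7-point, 3.16-fold compound dilutions in duplicate against DMSO controls. Lysates analysed by one-step RT-qPCR (40 cycles) for ATXN3 exon 4 skipping; percent skipping per dose fitted to dose-response to interpolate IC50.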

SMILES	IC50 [1]	IC50 (ATXN3 pre-mRNA)	IC50 (average), total ATXN3 protein [1]	IC50, exon 4 skipping in ATXN3 pre-mRNA (ATXN3 pre-mRNA)
C[C@H](N)C(F)c1sc2c(NCc3cccs3)cc(Cl)nc2c1Br (stereo partly drawn) [Cpd 158, 2-[(2S)-2-amino-1-fluoropropyl]-3-bromo-5-chloro-N-[(thiophen-2-yl)methyl]thieno[3,2-b]pyridin-7-amine]	≤ 500 nM	≤ 500 nM	–	–
C[C@H](N)C(O)c1sc2c(NCc3nccs3)cc(Cl)nc2c1Br (stereo partly drawn) [Cpd 159, (2S)-2-amino-1-(3-bromo-5-chloro-7-{[(1,3-thiazol-2-yl)methyl]amino}thieno[3,2-b]pyridin-2-yl)propan-1-ol]	–	–	inactive	inactive
C[C@H](N)C(F)c1sc2c(NCc3nccs3)cc(Cl)nc2c1Br (stereo partly drawn) [Cpd 161, 2-[(2S)-2-amino-1-fluoropropyl]-3-bromo-5-chloro-N-[(1,3-thiazol-2-yl)methyl]thieno[3,2-b]pyridin-7-amine]	500 to 1000 nM	≤ 500 nM	–	–
Cc1c(NC[C@H](C)N)sc2c(NCc3cccs3)cc(Cl)nc12 [Cpd 163, N^2-[(2S)-2-aminopropyl]-5-chloro-3-methyl-N^7-[(thiophen-2-yl)methyl]thieno[3,2-b]pyridine-2,7-diamine]	1000 to 1500 nM	500 to 1000 nM	–	–
Cc1c(NC[C@@H](C)N)sc2c(NCc3cccs3)cc(Cl)nc12 [Cpd 164, N^2-[(2R)-2-aminopropyl]-5-chloro-3-methyl-N^7-[(thiophen-2-yl)methyl]thieno[3,2-b]pyridine-2,7-diamine]	> 2000 nM	2000 to 3000 nM	–	–
C[C@@H](O)[C@H](N)Cc1sc2c(NCc3ccco3)cc(Cl)nc2c1Br [Cpd 165, (2R,3R)-3-amino-4-(3-bromo-5-chloro-7-{[(furan-2-yl)methyl]amino}thieno[3,2-b]pyridin-2-yl)butan-2-ol]	≤ 500 nM	≤ 500 nM	–	–
C#C[C@H](N)Cc1sc2c(NCc3ccco3)cc(Cl)nc2c1Cl [Cpd 166, 2-[(2R)-2-aminobut-3-yn-1-yl]-3,5-dichloro-N-[(furan-2-yl)methyl]thieno[3,2-b]pyridin-7-amine]	≤ 500 nM	≤ 500 nM	–	–
C[S+]([O-])C[C@H](N)Cc1sc2c(NCc3ccco3)cc(Cl)nc2c1Cl (stereo partly drawn) [Cpd 167, [(2R)-2-amino-3-(3,5-dichloro-7-{[(furan-2-yl)methyl]amino}thieno[3,2-b]pyridin-2-yl)propyl](methyl)sulfaniumolate]	≤ 500 nM	≤ 500 nM	–	–
